# Results taken from patent US12187684B2, “Benzimidazole derivatives as modulators of retinoid-related orphan receptor gamma (RORγ) and pharmaceutical use thereof” (Jiangsu Hengrui Medicine Co., Ltd., priority 2018, dated 2025).
# Columns and labels:
# RORγ LBD-GST tagged = biological target: T1, RORγ LBD-GST tagged (Homo sapiens, UniProt P51449); test: LanthaScreen TR-FRET RORγ coactivator assay; assay type: biochemical; conditions: Fluorescein-D22 coactivator peptide, 1 hour room temperature
# T1 construct: RORγ LBD-GST tagged (Cat No. RORC-114H, Creative Biomart); purchased Creative Biomart RORC-114H
# T1 sequence (P51449 269-508 limits assumed): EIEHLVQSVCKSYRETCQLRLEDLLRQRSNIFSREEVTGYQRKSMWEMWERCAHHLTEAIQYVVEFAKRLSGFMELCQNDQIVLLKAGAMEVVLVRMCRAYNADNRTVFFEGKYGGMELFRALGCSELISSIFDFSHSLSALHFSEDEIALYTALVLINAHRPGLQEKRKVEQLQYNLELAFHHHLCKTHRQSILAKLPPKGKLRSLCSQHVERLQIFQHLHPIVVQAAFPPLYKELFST
# Summary of the method: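 GST-tagged RORγ LBD (25 ng/reaction) was incubated in coregulator buffer D with 5 mM DTT and compound (top 3 μM, 7-fold steps, 7 doses), then with a mix containing 0.6 μM fluorescein-D22 peptide and 8 nM Tb anti-GST antibody. After 1 h at room temperature in the dark, 520/495 nm TR-FRET was read. IC50 came from log concentration versus percent inhibition.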
# [1] = test system: IL-17 production, human PBMC cells; test: IL-17 production assay using human PBMC; assay type: cell-based; conditions: Homo sapiens, PBMC, 72 h, human PBMC stimulated by cytostim for 3 days, IL-17 ELISA of supernatant
# Excerpt: Test Example 2. IL-17 Production Assay Using Human PBMC
# • 1. Human PBMC cells (Cat No. 70025.1, Zenbio) • 2. Lymphocyte medium (Cat No. LYMPH-1, Zenbio) • 3. TexMACS (Cat No. 130-097-196, Miltenyi) • 4. Cytostim-human (Cat No. 1130-092-173, Miltenyi) • 5. Human IL-17 ELISA (Cat No. D1700, R&D systems) • 6. Tecan Infinite M1000 plate reader (Tecan)
# Experimental Procedure for IL-17 Production Assay
# Cryopreserved peripheral blood human mononuclear cells (PBMCs) were rapidly thawed in warmed Lymphocyte media, and centrifuged cell suspension at 1000 rpm for 10 minutes. The supernatant was removed, and the cell pellets were gently resuspended in TexMACS media.
# Human PBMC cells in TexMACS media were plated at 1×10^5 each well in triplicate. The test compounds at various concentrations or vehicle control (<0.5% DMSO) were added into cell culture. The cells were stimulated by cytostim (10 μL/mL) for 3 days in a humidified, 5% CO2 incubator at 37° C.
# After incubation, the cell culture supernatant was harvested, and then removed particulates by centrifugation. Human IL-17 in the supernatant was measured using human IL-17 ELISA kit according to the manufacturer's protocol. IC50 values were determined using GraphPad Prism by plotting the compounds concentration versus percent inhibition.
SMILES,IC50 (RORγ LBD-GST tagged),IC50 [1]
"CCS(=O)(=O)c1ccc(C(CO)c2nc3c(Cl)c(-c4ccccc4OC(F)F)c(Cl)cc3[nH]2)cc1 (stereo not drawn) [Example 29, 2-(4,6-dichloro-5-(2-(difluoromethoxy)phenyl)-1H-benzo[d]imidazol-2-yl)-2-(4-(ethylsulfonyl)phenyl)ethanol]",0.269 µM,0.009 µM
"CCS(=O)(=O)c1ccc(C(O)c2nc3c(Cl)c(-c4ccccc4OC(F)F)c(Cl)cc3[nH]2)cc1 (stereo not drawn) [Example 30, (4,6-dichloro-5-(2-(difluoromethoxy)phenyl)-1H-benzo[d]imidazol-2-yl)(4-(ethylsulfonyl)phenyl)methanol]",0.062 µM,0.007 µM
"CCS(=O)(=O)c1ccc(Cc2nc3c(Cl)c(-c4ccccc4OCC(F)(F)F)c(Cl)cc3[nH]2)cc1 [Example 31, 4,6-dichloro-2-(4-(ethylsulfonyl)benzyl)-5-(2-(2,2,2-trifluoroethoxy)phenyl)-1H-benzo[d]imidazole]",0.01 µM,0.011 µM
"CCS(=O)(=O)c1ccc(C(CO)c2nc3c(Cl)c(-c4ccccc4OCC(F)(F)F)c(Cl)cc3[nH]2)cc1 (stereo not drawn) [Example 32, 2-(4,6-dichloro-5-(2-(2,2,2-trifluoroethoxy)phenyl)-1H-benzo[d]imidazol-2-yl)-2-(4-(ethylsulfonyl)phenyl)ethanol]",0.052 µM,0.007 µM
"CCS(=O)(=O)c1ccc(C(O)c2nc3c(Cl)c(-c4ccccc4OCC(F)(F)F)c(Cl)cc3[nH]2)cc1 (stereo not drawn) [Example 33, (4,6-dichloro-5-(2-(2,2,2-trifluoroethoxy)phenyl)-1H-benzo[d]imidazol-2-yl)(4-(ethylsulfonyl)phenyl)methanol]",0.031 µM,0.015 µM
"CCS(=O)(=O)c1ccc(Cc2nc3c(Cl)c(-c4ccccc4CCC(F)(F)F)c(Cl)cc3[nH]2)cc1 [Example 34, 4,6-dichloro-2-(4-(ethylsulfonyl)benzyl)-5-(2-(3,3,3-trifluoropropyl)phenyl)-1H-benzo[d]imidazole]",0.016 µM,0.049 µM
"CCS(=O)(=O)c1ccc(C(O)c2nc3c(Cl)c(-c4ccccc4CCC(F)(F)F)c(Cl)cc3[nH]2)cc1 (stereo not drawn) [Example 35, (4,6-dichloro-5-(2-(3,3,3-trifluoropropyl)phenyl)-1H-benzo[d]imidazol-2-yl)(4-(ethylsulfonyl)phenyl)methanol]",0.061 µM,0.008 µM
"CCS(=O)(=O)c1ccc(/C(=N\O)c2nc3c(Cl)c(-c4ccccc4OC(F)F)c(Cl)cc3[nH]2)cc1 [Example 38, (E,Z)-(4,6-dichloro-5-(2-(difluoromethoxy)phenyl)-1H-benzo[d]imidazol-2-yl)(4-(ethylsulfonyl)phenyl)methanone oxime]",0.147 µM,0.873 µM
"CCS(=O)(=O)c1ccc(C(N)c2nc3c(Cl)c(-c4ccccc4OC(F)F)c(Cl)cc3[nH]2)cc1 (stereo not drawn) [Example 39, (4,6-dichloro-5-(2-(difluoromethoxy)phenyl)-1H-benzo[d]imidazol-2-yl)(4-(ethylsulfonyl)phenyl)methanamine]",0.007 µM,0.038 µM
"CS(=O)(=O)c1ccc(C(CO)c2nc3c(Cl)c(-c4ccccc4C(F)(F)F)c(Cl)cc3[nH]2)cc1 (stereo not drawn) [Example 46, 2-(4,6-dichloro-5-(2-(trifluoromethyl)phenyl)-1H-benzo[d]imidazol-2-yl)-2-(4-(methylsulfonyl)phenyl)ethanol]",0.048 µM,0.018 µM
"O=S(=O)(CC1CC1)c1ccc(Cc2nc3c(Cl)c(-c4ccccc4OC(F)(F)F)c(Cl)cc3[nH]2)cc1 [Example 66, 4,6-dichloro-2-(4-((cyclopropylmethyl)sulfonyl)benzyl)-5-(2-(trifluoromethoxy)phenyl)-1H-benzo[d]imidazole]",0.002 µM,0.01 µM
"O=S(=O)(CC1CC1)c1ccc(C(CO)c2nc3c(Cl)c(-c4ccccc4OC(F)(F)F)c(Cl)cc3[nH]2)cc1 (stereo not drawn) [Example 67, 2-(4-((cyclopropylmethyl)sulfonyl)phenyl)-2-(4,6-dichloro-5-(2-(trifluoromethoxy)phenyl)-1H-benzo[d]imidazol-2-yl)ethanol]",0.002 µM,0.002 µM
